Laboratory results: patent publication US20150284331A1 (priority 2012, published 2015)
Where a chain is given by its changes, count along the chain named. Like-named read-outs stand apart in the source and are kept apart here.

Tests used:
KM mice = experiment: acute toxicities of compounds on mice; format: in vivo; conditions: 100 mg/kg oral
Experimental: Sample processing: When getting samples, they were undissolved. […] The samples were suspensions. Experimental animals: KM mice, 22-29 g, half male and half female.
Experimental method: Mice were randomly divided into groups. 100 mg/kg of test compounds DC19 and DC20 were administered orally, respectively.

[1] = target: T1, cortex and hippocampus acetylcholinesterase of mice (Mus musculus, UniProt P21836); format: in vivo; conditions: for Acetylcholinesterase activity (%) cortex / Acetylcholinesterase activity (%) hippocampus: 1 h, % of solvent control, Mean ± SEM
T1 construct: from tissue; host or cells: mouse cortex and hippocampus homogenate
T1 sequence (P21836 32-614): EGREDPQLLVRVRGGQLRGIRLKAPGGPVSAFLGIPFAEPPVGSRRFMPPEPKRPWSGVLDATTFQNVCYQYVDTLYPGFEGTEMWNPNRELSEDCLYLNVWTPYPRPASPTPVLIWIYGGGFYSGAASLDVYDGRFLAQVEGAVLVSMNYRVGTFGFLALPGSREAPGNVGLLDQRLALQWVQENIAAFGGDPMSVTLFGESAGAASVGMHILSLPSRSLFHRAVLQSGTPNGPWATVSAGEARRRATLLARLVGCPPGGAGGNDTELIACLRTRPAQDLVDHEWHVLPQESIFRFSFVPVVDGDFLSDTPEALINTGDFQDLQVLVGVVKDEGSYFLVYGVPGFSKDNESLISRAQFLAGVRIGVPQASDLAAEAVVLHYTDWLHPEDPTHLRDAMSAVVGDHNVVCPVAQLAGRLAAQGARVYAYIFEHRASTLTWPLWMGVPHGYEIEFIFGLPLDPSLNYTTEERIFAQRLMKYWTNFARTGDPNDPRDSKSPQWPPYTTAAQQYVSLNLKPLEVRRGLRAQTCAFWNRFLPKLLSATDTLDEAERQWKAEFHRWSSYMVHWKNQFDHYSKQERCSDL
Experimental: 5% DMSO was added and shaken sufficiently to dissolve the samples. Then 1% cosolvent EL (polyoxyethylated castor oil) was added and water was used to make up the remaining volumn to obtain 10 mg/mL sample. The samples were diluted gradually to 0.3 mg/mL, 1 mg/mL and 3 mg/mL. […] The samples were administrated orally according to 0.1˜mL/10 g of volumn to weight ratio. An equal amount of 5% DMSO and 1% EL solution was administered orally to the solvent control group.
(1) Acetylcholinesterase: mouse cortex and hippocampus. 1 h after orally administrated, the mice were decapitated. After the brains were taken out, the hippocampus and cortex were quickly stripped on the ice. To the cortex was added ice-cold 75 mM PBS, and homogenated to form 30× tissue homogenate and to the hippocampus was added ice-cold 75 mM PBS and homogenated to form 40× tissue homogenate. And finally 1/10 by volumn of OMPA was added and placed on the ice to be tested.
(2) Test Method: To the samples were added a reaction system containing PBS, H2O, S-Ach and DTNB. Except for the blank tube, to the rest of the tubes were added an appropriate amount of enzyme. The reaction was carried out at room temperature for 20 minutes. SDS was added to each tube to quench the reaction. An appropriate amount of enzyme was added to the blank tube. Absorbance of each tube was determined by UV-visible spectrophotometer (OD440 nm).

butyrylcholinesterase = target: T2, butyrylcholinesterase (Rattus norvegicus, UniProt Q9JKC1); experiment: inhibition of butyrylcholinesterase (rat serum); format: biochemical; conditions: rat serum enzyme; final concentration 4×10−5 mol/L
T2 construct: Butyrylcholinesterase: rat serum; from tissue; host or cells: rat serum
T2 sequence (Q9JKC1 24-597): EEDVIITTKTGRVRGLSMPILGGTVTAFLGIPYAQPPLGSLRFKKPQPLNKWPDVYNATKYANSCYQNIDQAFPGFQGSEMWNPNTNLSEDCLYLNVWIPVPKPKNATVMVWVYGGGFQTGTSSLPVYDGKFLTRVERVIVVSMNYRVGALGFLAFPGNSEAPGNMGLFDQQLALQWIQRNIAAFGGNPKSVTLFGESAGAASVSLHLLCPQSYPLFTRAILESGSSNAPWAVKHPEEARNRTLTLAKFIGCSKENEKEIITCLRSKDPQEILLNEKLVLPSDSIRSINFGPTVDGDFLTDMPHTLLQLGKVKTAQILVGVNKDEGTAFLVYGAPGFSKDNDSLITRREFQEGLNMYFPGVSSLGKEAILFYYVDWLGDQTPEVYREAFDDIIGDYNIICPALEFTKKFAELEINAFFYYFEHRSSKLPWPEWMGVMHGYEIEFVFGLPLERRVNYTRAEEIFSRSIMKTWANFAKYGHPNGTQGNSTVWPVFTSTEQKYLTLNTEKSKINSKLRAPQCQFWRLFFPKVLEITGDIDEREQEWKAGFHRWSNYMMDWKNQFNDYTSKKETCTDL
Experimental: (§1) Sample processing: All samples were formulated as 10-2 mol/L solution by using 100% DMSO. 10-2 mol/L solution was used in microdetermination. 1 μL was taken to use in single tube experiment.
(§2) Solvent control: 0.4% DMSO was used in microdetermination. The inhibition ratio of the sample was obtained wherein the effect of solvent was deducted.
Butyrylcholinesterase: rat serum

acetylcholinesterase = target: T3, acetylcholinesterase (Rattus norvegicus, UniProt P37136); experiment: biochemical; format: biochemical; conditions: rat cortex enzyme
T3 construct: Acetylcholinesterase: rat cortex; from tissue; host or cells: rat cortex
T3 sequence (P37136 32-614): T1 sequence (P21836 32-614) with V59I, A109T, A128S, A144T, A271S, E313D, T392A, T467V, K478Q, Q499R
Experimental: as §1, §2
Acetylcholinesterase: rat cortex

How did the response symptoms (KM mice; female KM mouse) turn out when `COc1cc2c(cc1OC)C(=O)C(CC1(F)CCN(Cc3ccccc3F)CC1)C2` (stereo not shown) [DC20, 2-((4-fluoro-1-(2-fluorobenzyl)piperidin-4-yl)methyl)-5,6-dimethoxy-2,3-dihydro-1H-inden-1-one] was run?
Its response symptoms is 8 min, myasthenia, lacrimal.

What about the response symptoms (KM mice; male KM mouse) of the same compound?
Its response symptoms is 6 min, myasthenia, reduction in.

And the “time of death after administration” value (KM mice; male KM mouse)?
Its value is “secretion, immobility; 24 h,”.

And the “inhibition of cortex acetylcholinesterase compared with the solvent control group” value ([1]; 0.3 mg/kg oral)?
Its value is 14.67%.

What about the “inhibition of hippocampus acetylcholinesterase compared with the solvent control group” value ([1]; 0.3 mg/kg oral) of the same compound?
The value was 15.47%.

What about the “Acetylcholinesterase activity (%) cortex” value ([1]; 0.3 mg/kg oral) of the same compound?
Its value is 85.33%.

And the “Acetylcholinesterase activity (%) hippocampus” value ([1]; 0.3 mg/kg oral)?
Its value is 84.53%.

What about the “inhibition effects on mouse cortex and hippocampus AChE compared with Donepezil” value ([1]; 1 mg/kg of DC20 versus 10 mg/kg Donepezil) of the same compound?
Its value is “comparable to those of 10 mg/kg of positive control drug Donepezil”.

What about the “inhibition of cortex acetylcholinesterase compared with the solvent control group” value ([1]; 1 mg/kg oral) of the same compound?
The value was 22.02%.

What about the “inhibition of hippocampus acetylcholinesterase compared with the solvent control group” value ([1]; 1 mg/kg oral) of the same compound?
Its value is 19.76%.

And the “Acetylcholinesterase activity (%) cortex” value ([1]; 1 mg/kg oral)?
The value was 77.98%.

What about the “Acetylcholinesterase activity (%) hippocampus” value ([1]; 1 mg/kg oral) of the same compound?
The value was 80.24%.

What about the “inhibition effects on mouse cortex and hippocampus acetylcholinesterase (in words)” value ([1]; 1 mg/kg, 3 mg/kg and 10 mg/kg oral) of the same compound?
The value was “significant inhibition effects”.

And the “inhibition of cortex acetylcholinesterase compared with the solvent control group” value ([1]; 3 mg/kg oral)?
Its value is 42.95%.

And the “inhibition of hippocampus acetylcholinesterase compared with the solvent control group” value ([1]; 3 mg/kg oral)?
The value was 50.12%.

And the “Acetylcholinesterase activity (%) cortex” value ([1]; 3 mg/kg oral)?
The value was 57.05%.

What about the “Acetylcholinesterase activity (%) hippocampus” value ([1]; 3 mg/kg oral) of the same compound?
Its value is 49.88%.

And the “inhibition of cortex acetylcholinesterase compared with the solvent control group” value ([1]; 10 mg/kg oral)?
Its value is 66.02%.

And the “inhibition of hippocampus acetylcholinesterase compared with the solvent control group” value ([1]; 10 mg/kg oral)?
The value was 65.62%.

And the “Acetylcholinesterase activity (%) cortex” value ([1]; 10 mg/kg oral)?
The value was 33.98%.

And the “Acetylcholinesterase activity (%) hippocampus” value ([1]; 10 mg/kg oral)?
Its value is 34.38%.

And the “overall activity compared with Donepezil” value ([1]; mouse cortex and hippocampus AChE, oral)?
Its value is “better than that of Donepezil”.

And the “butyrylcholinesterase inhibitory activity inhibition ratio (%)” value (butyrylcholinesterase)?
Its value is 71.58%.

And the “acetylcholinesterase inhibitory activity inhibition ratio (%)” value (acetylcholinesterase; final concentration 4×10−5 mol/L)?
Its value is 82.04%.

What about the IC50 (acetylcholinesterase; read-out: acetylcholinesterase inhibitory activity IC50 (nmol)) of the same compound?
The IC50 was 0.86 nM.
